How the values were obtained:
velvetleaf = assay: Test B pre/postemergence velvetleaf; format: in vivo, Abutilon theophrasti; conditions: for Plant response rating, Velvetleaf: scale of 0 to 10 where 0 is no effect and 10 is complete control
Outline: (§1)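 Response is a visual 0-to-10 score relative to untreated plants, where 0 means no effect and 10 means complete control, taken twelve to sixteen days after application. Treatments went onto soil at planting and onto foliage of 1- to 4-leaf plants, using a surfactant-containing non-phytotoxic solvent.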

bamyardgrass = assay: Test B flood test barnyardgrass; format: in vivo, Echinochloa crus-galli
Outline: (§2)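 Read-out is a visual response score from 0 (no effect) to 10 (complete control), assigned by comparison with untreated controls. Treatment was applied at the 2-leaf stage, and plants stayed in the greenhouse for twelve to sixteen days before scoring.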

wild oat = assay: Test B pre/postemergence wild oat; format: in vivo, Avena fatua; conditions: for Plant response rating, Wild oats: scale of 0 to 10 where 0 is no effect and 10 is complete control
Outline: as §1

smallflower flatsedge = assay: Test B flood test smallflower flatsedge; format: in vivo, Cyperus difformis
Outline: as §2

duck salad = assay: Test B flood test duck salad; format: in vivo, Heteranthera limosa
Outline: as §2

cocklebur = assay: Test B pre/postemergence cocklebur; format: in vivo, Xanthium strumarium; conditions: for Plant response rating, Cocklebur: scale of 0 to 10 where 0 is no effect and 10 is complete control
Outline: as §1

crabgrass = assay: Test B pre/postemergence crabgrass; format: in vivo, Digitaria sanguinalis; conditions: for Plant response rating, Crabgrass: scale of 0 to 10 where 0 is no effect and 10 is complete control
Outline: as §1

purple nutsedge = assay: Test B pre/postemergence purple nutsedge; format: in vivo, Cyperus rotundus; conditions: for Plant response rating, Nutsedge: scale of 0 to 10 where 0 is no effect and 10 is complete control
Outline: as §1

blackgrass = assay: Test B pre/postemergence blackgrass; format: in vivo, Alopecurus myosuroides; conditions: for Plant response rating, Blackgrass: scale of 0 to 10 where 0 is no effect and 10 is complete control
Outline: as §1

bedstraw = assay: Test B pre/postemergence bedstraw; format: in vivo, Galium aparine; conditions: Postemergence, Rate 31 g/ha; visual rating, scale 0 to 10 (0 no effect, 10 complete control)
Outline: as §1

corn = assay: Test B pre/postemergence corn; format: in vivo, Zea mays; conditions: for Plant response rating, Corn: scale of 0 to 10 where 0 is no effect and 10 is complete control
Outline: as §1

rape = assay: Test B pre/postemergence rape; format: in vivo, Brassica napus; conditions: for Plant response rating, Rape: scale of 0 to 10 where 0 is no effect and 10 is complete control
Outline: as §1

sugar beet = assay: Test B pre/postemergence sugar beet; format: in vivo, Beta vulgaris; conditions: for Plant response rating, Sugarbeets: scale of 0 to 10 where 0 is no effect and 10 is complete control
Outline: as §1

surinam grass = assay: Test B pre/postemergence surinam grass; format: in vivo, Brachiaria decumbens; conditions: for Plant response rating, B. signalgrass: scale of 0 to 10 where 0 is no effect and 10 is complete control
Outline: as §1

soybean = assay: Test B pre/postemergence soybean; format: in vivo, Glycine max; conditions: for Plant response rating, Soybean: scale of 0 to 10 where 0 is no effect and 10 is complete control
Outline: as §1

rice = assay: Test B flood test rice; format: in vivo, Oryza sativa
Outline: as §2

wheat = assay: Test B pre/postemergence wheat; format: in vivo, Triticum aestivum; conditions: for Plant response rating, Wheat: scale of 0 to 10 where 0 is no effect and 10 is complete control
Outline: as §1

[1] = Postemergence, Rate 31 g/ha, visual rating, scale 0 to 10 (0 no effect, 10 complete control)
[2] = Postemergence, Rate 250 g/ha, scale 0 to 10
[3] = Preemergence, Rate 250 g/ha, scale 0 to 10, 0 is no effect, 10 is complete control
[4] = Rate 62 g/ha, Postemergence, scale 0 to 10 (0 no effect, 10 complete control)
[5] = Rate 125 g/ha, Postemergence, scale 0 to 10, 0 is no effect, 10 is complete control
[6] = Rate 31 g/ha, Pre-emergence section (flood test species), scale 0 to 10
[7] = Rate 62 g/ha, flood test species, Pre-emergence, visual evaluation after twelve to sixteen days
[8] = Rate 125 g/ha, under heading Pre-emergence, flood test species, visual evaluation after twelve to sixteen days
[9] = Rate 250 g/ha, Pre-emergence (flood test species), scale 0 to 10, 0 is no effect, 10 is complete control
[10] = Preemergence, Rate 31 g/ha, visual rating, scale 0 to 10 (0 no effect, 10 complete control)

CC(C)N(C(=O)n1oc(=O)n(CC2=NOCCC2)c1=O)c1ccc(Cl)cc1 [Compound 450]
Velvetleaf plant response rating (velvetleaf; [1]): 0 | Velvetleaf plant response rating (velvetleaf; [2]): 2 | Plant response rating, Velvetleaf (velvetleaf; Preemergence, Rate 62 g/ha): 0 | Plant response rating, Velvetleaf (velvetleaf; Preemergence, Rate 125 g/ha): 0 | Velvetleaf plant response rating (velvetleaf; [3]): 0 | Velvetleaf plant response rating (velvetleaf; [4]): 0 | Velvetleaf plant response rating (velvetleaf; [5]): Velvetleaf 0 | Barnyardgrass plant response rating (bamyardgrass; [6]): 0 | Plant response rating, Barnyardgrass (0 to 10 scale, 0 is no effect, 10 is complete control) (bamyardgrass; [7]): 0 | Barnyardgrass plant response rating (0 to 10 scale, 0 is no effect, 10 is complete control) (bamyardgrass; [8]): 0 | Barnyardgrass plant response rating (bamyardgrass; [9]): 0 | Wild oats plant response rating (wild oat; [1]): 0 | Wild oats plant response rating (wild oat; [2]): 0 | Plant response rating, Wild oats (wild oat; Preemergence, Rate 62 g/ha): 0 | Plant response rating, Wild oats (wild oat; Preemergence, Rate 125 g/ha): 0 | Wild oats plant response rating (wild oat; [3]): 0 | Wild oats plant response rating (wild oat; [4]): 0 | Wild oats plant response rating (wild oat; [5]): 0 | S. Flatsedge plant response rating (smallflower flatsedge; [6]): 0 | Plant response rating, S. Flatsedge (0 to 10 scale, 0 is no effect, 10 is complete control) (smallflower flatsedge; [7]): 0 | S. Flatsedge plant response rating (0 to 10 scale, 0 is no effect, 10 is complete control) (smallflower flatsedge; [8]): 0 | S. Flatsedge plant response rating (smallflower flatsedge; [9]): 0 | Ducksalad plant response rating (duck salad; [6]): 0 | Plant response rating, Ducksalad (0 to 10 scale, 0 is no effect, 10 is complete control) (duck salad; [7]): 0 | Ducksalad plant response rating (0 to 10 scale, 0 is no effect, 10 is complete control) (duck salad; [8]): 0 | Ducksalad plant response rating (duck salad; [9]): 0 | Cocklebur plant response rating (cocklebur; [1]): 0 | Cocklebur plant response rating (cocklebur; [2]): 0 | Cocklebur plant response rating (cocklebur; [10]): 0 | Plant response rating, Cocklebur (cocklebur; Preemergence, Rate 62 g/ha): 0 | Plant response rating, Cocklebur (cocklebur; Preemergence, Rate 125 g/ha): 0 | Cocklebur plant response rating (cocklebur; [3]): 0 | Cocklebur plant response rating (cocklebur; [4]): 0 | Cocklebur plant response rating (cocklebur; [5]): 0 | Crabgrass plant response rating (crabgrass; [1]): 0 | Crabgrass plant response rating (crabgrass; [2]): 4 | Crabgrass plant response rating (crabgrass; [10]): 0 | Plant response rating, Crabgrass (crabgrass; Preemergence, Rate 62 g/ha): 2 | Plant response rating, Crabgrass (crabgrass; Preemergence, Rate 125 g/ha): 7 | Crabgrass plant response rating (crabgrass; [3]): 8 | Crabgrass plant response rating (crabgrass; [4]): 0 | Crabgrass plant response rating (crabgrass; [5]): 2 | Nutsedge plant response rating (purple nutsedge; [1]): 0 | Nutsedge plant response rating (purple nutsedge; [2]): 0 | Plant response rating, Nutsedge (purple nutsedge; Preemergence, Rate 62 g/ha): 0 | Plant response rating, Nutsedge (purple nutsedge; Preemergence, Rate 125 g/ha): 0 | Nutsedge plant response rating (purple nutsedge; [3]): 0 | Nutsedge plant response rating (purple nutsedge; [4]): 0 | Nutsedge plant response rating (purple nutsedge; [5]): 0 | Blackgrass plant response rating (blackgrass; [1]): 0 | Blackgrass plant response rating (blackgrass; [2]): 2 | Blackgrass plant response rating (blackgrass; [10]): 0 | Plant response rating, Blackgrass (blackgrass; Preemergence, Rate 62 g/ha): 0 | Plant response rating, Blackgrass (blackgrass; Preemergence, Rate 125 g/ha): 2 | Blackgrass plant response rating (blackgrass; [3]): 4 | Blackgrass plant response rating (blackgrass; [4]): 0 | Blackgrass plant response rating (blackgrass; [5]): 0 | Bedstraw plant response rating (bedstraw): 0 | Corn plant response rating (corn; [1]): 0 | Corn plant response rating (corn; [2]): 0 | Corn plant response rating (corn; [10]): 0 | Plant response rating, Corn (corn; Preemergence, Rate 62 g/ha): 0 | Plant response rating, Corn (corn; Preemergence, Rate 125 g/ha): 0 | Corn plant response rating (corn; [3]): 0 | Corn plant response rating (corn; [4]): 0 | Corn plant response rating (corn; [5]): 0 | Rape plant response rating (rape; [1]): 0 | Rape plant response rating (rape; [2]): 0 | Plant response rating, Rape (rape; Preemergence, Rate 62 g/ha): 0 | Plant response rating, Rape (rape; Preemergence, Rate 125 g/ha): 0 | Rape plant response rating (rape; [3]): 0 | Rape plant response rating (rape; [4]): 0 | Rape plant response rating (rape; [5]): 0 | Sugarbeets plant response rating (sugar beet; [1]): 0 | Sugarbeets plant response rating (sugar beet; [2]): 0 | Plant response rating, Sugarbeets (sugar beet; Preemergence, Rate 62 g/ha): 0 | Plant response rating, Sugarbeets (sugar beet; Preemergence, Rate 125 g/ha): 0 | Sugarbeets plant response rating (sugar beet; [3]): 0 | Sugarbeets plant response rating (sugar beet; [4]): 0 | Sugarbeets plant response rating (sugar beet; [5]): 0 | B. signalgrass plant response rating (surinam grass; [1]): 0 | B. signalgrass plant response rating (surinam grass; Postemergence, Rate 250 g/ha, scale 0 to 10, 0 no effect, 10 complete control): 0 | B. signalgrass plant response rating (surinam grass; [10]): 0 | Plant response rating, B. signalgrass (surinam grass; Preemergence, Rate 62 g/ha): 0 | Plant response rating, B. signalgrass (surinam grass; Preemergence, Rate 125 g/ha): 1 | B. signalgrass plant response rating (surinam grass; [3]): 3 | B. signalgrass plant response rating (surinam grass; [4]): 0 | B. signalgrass plant response rating (surinam grass; [5]): 0 | Soybean plant response rating (soybean; [1]): 0 | Soybean plant response rating (soybean; [2]): 1 | Plant response rating, Soybean (soybean; Preemergence, Rate 62 g/ha): 0 | Plant response rating, Soybean (soybean; Preemergence, Rate 125 g/ha): 0 | Soybean plant response rating (soybean; [3]): 3 | Soybean plant response rating (soybean; [4]): 1 | Soybean plant response rating (soybean; [5]): 1 | Rice plant response rating (rice; [6]): 0 | Plant response rating, Rice (0 to 10 scale, 0 is no effect, 10 is complete control) (rice; [7]): 0 | Rice plant response rating (0 to 10 scale, 0 is no effect, 10 is complete control) (rice; [8]): 0 | Rice plant response rating (rice; [9]): 0 | Wheat plant response rating (wheat; [1]): 0 | Wheat plant response rating (wheat; [2]): 0 | Plant response rating, Wheat (wheat; Preemergence, Rate 62 g/ha): 0 | Plant response rating, Wheat (wheat; Preemergence, Rate 125 g/ha): 0 | Wheat plant response rating (wheat; [3]): 0 | Wheat plant response rating (wheat; [4]): 0 | Wheat plant response rating (wheat; [5]): 0

Source: patent US6737383B1, “Herbicidal oxadiazolidines” (priority 1999, dated 2004)
